Measured values as given in patent publication US7339039B2, “Nucleic acids encoding receptor recognition factors, and methods of use thereof” (The Rockfeller University, priority 1992, dated 2008).
One block for each compound: values may come before it. Square brackets hold non-standard residues; d marks the D form. Ends that are not written are not given here. pY = N[C@@H](Cc1ccc(OP(=O)(O)O)cc1)C(=O)O

Legend:
[1] = biological target: T1, Stat91-DNA complex (Homo sapiens, UniProt P42224); assay: Formation of Stat91-DNA complex in the presence of phosphoamino acids; type: biochemical; settings: 10 mM
T1 sequence (P42224 1-750): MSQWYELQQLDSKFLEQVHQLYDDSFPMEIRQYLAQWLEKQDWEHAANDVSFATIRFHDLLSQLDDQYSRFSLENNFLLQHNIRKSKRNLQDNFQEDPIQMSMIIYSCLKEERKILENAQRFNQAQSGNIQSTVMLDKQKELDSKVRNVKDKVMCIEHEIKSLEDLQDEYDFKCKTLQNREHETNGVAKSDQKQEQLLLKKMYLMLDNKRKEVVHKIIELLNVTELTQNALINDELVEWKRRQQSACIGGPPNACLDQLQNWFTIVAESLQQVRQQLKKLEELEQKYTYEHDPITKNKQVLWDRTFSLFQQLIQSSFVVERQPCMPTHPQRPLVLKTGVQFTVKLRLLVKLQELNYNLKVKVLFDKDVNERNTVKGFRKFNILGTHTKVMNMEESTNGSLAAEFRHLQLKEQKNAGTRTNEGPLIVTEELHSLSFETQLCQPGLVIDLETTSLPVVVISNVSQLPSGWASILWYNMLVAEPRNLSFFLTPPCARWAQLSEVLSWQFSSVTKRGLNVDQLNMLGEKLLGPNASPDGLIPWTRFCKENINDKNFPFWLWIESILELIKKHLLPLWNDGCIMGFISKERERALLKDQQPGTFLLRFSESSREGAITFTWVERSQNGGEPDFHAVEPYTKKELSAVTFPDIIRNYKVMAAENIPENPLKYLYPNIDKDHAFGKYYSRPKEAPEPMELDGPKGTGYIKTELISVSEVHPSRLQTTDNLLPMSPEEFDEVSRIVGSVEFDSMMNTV
Procedure: (§1) Gel Mobility Shift Assays. Gel mobility shift assays were carried out as described (34). An oligonucleotide corresponding to the GAS element from the human FcγRI receptor gene (Pearse et al. 1993) was synthesized and used for gel mobility shift assays. The oligonucleotide has the following sequence: 5′[…]3′ (SEQ. ID NO:17).
The Stat91 sequence contains an SH2 domain (amino acids 569 to 700, see discussion below), and we knew that Tyr-701 was the single phosphorylated tyrosine residue required for DNA binding activity (supra, 45). […] We therefore sought evidence that the dimerization of Stat91 involved specific SH2-phosphotyrosine interaction using the dissociation and reassociation assay.

[2] = system: ISGF-3 formation / IFN-α induced transcription; settings: cited from earlier work
[3] = system: Stat84 and Stat91L homodimers; assay: Dissociation-reassociation analysis (gel mobility shift with GAS probe); type: biochemical, human; settings: for dissociation of the dimers and block of formation of DNA protein complexes: peptide 160 μM
Procedure: as §1
Dissociation-reassociation Analysis. Extracts were incubated with various concentrations of peptides or fusion proteins, and ^32P-labeled GAS oligonucleotide probe in gel shift buffer was then added to promote the formation of protein-DNA complex followed by mobility shift analysis.
Dimerization of Stat91 Involves Phosphoryrosyl Peptide and SH2 Interactions. Based on the results described above, we devised a dissociation-reassociation assay in the absence of guanidium hydrochloride to explore the possible nature of interactions involved in dimer formation (FIG. 20). When the short and the long forms of a homodimer are mixed with a dissociating agent (e.g., a peptide containing the putative dimerization domain), the subunits of the dimer should dissociate (in a concentration dependent fashion) due to the interaction of the agent with the dimerization domain(s) of the protein. When a specific DNA probe is subsequently added to the mixture to drive the formation of a stable protein-DNA complex, the detection of any reassociated or remaining dimers can be assayed. In the presence of low concentration of the dissociating agent, addition of DNA to form the stable protein-DNA complex should lead to the detection of homodimers as well as heterodimers. At high concentration of the dissociating agent, subunits of the dimer may not be able to re-form and no DNA-protein complexes would be detected (FIG. 20).

prevention of formation of Stat91-DNA complex [1]: not
Compound: N[C@@H](COP(=O)(O)O)C(=O)O [phosphoserine]

prevention of formation of Stat91-DNA complex [1]: not
Compound: C[C@@H](OP(=O)(O)O)[C@H](N)C(=O)O [phosphothreonine]

prevention of formation of Stat91-DNA complex [1]: could prevent the formation
Compound: N[C@@H](Cc1ccc(OP(=O)(O)O)cc1)C(=O)O [phosphotyrosine]

Compound: CN[C@@H]1C[C@H]2O[C@@](C)([C@@H]1OC)n1c3ccccc3c3c4c(c5c6ccccc6n2c5c31)C(=O)NC4 [staurosporine]
IFN-α induction of ISGF-3 formation [2]: blocks | IFN-α induction of transcription [2]: blocks

Compound: EPQY*EEIPIYL (EPQ[pY]EEIPIYL) [SrcY-p, reference compound]
effect on Stat91 dimer formation ([3]; FIG. 21 lanes 11-13 (4, 40, 160 μM)): no effect

Compound: GY*IKTE (G[pY]IKTE) [91Y-p]
exchange between the subunits of Stat84 dimers and Stat91L dimers to form heterodimers ([3]; peptide 4 μM, extracts of IFN-γ-treated C84 and C91L cells): clearly promoted the exchange | dissociation of the dimers and block of formation of DNA protein complexes [3]: dissociated the dimers and blocked the formation of DNA protein complexes

Compound: KVNLQERRKY*LKHR (KVNLQERRK[pY]LKHR) [113Y-p]
exchange of subunits between Stat84 and Stat91L ([3]; at concentrations similar to 91Y-p): promoted the exchange of subunits | prevention of the gel shift bands ([3]; peptide 40 μM): prevented the gel shift bands almost completely

Compound: LDGPKGTGYIKTELI [91Y]
dissociation of the dimers and block of formation of DNA protein complexes [3]: not | effect on the two gel shift bands characteristic of Stat84 or Stat91L homodimers ([3]; various concentrations of peptide (4, 40, 160 μM)): no effect
